This is an account of results in article PMC11656708, “PHP-Family Diesterase from Novosphingobium with Broad Specificity and High Catalytic Efficiency against Organophosphate Flame-Retardant Derived Diesters” (Biochemistry, 2024).

Test [1] relates to T1, No-PDE.
T1 construct: synthetic gene, recombinant, purified to homogeneity; trinuclear zinc site
The test can be described thus: UV/vis Michaelis-Menten kinetics. Type of test: biochemical, Novosphingobium sp. EMRT-2. From the text: UV/vis Michaelis-Menten kinetics on No-PDE

Test [2] has as its system T2, Sb-PDE.
T2 construct: synthetic gene, recombinant, purified to homogeneity; trinuclear zinc site
Description: UV/vis Michaelis-Menten kinetics. It is filed as biochemical, Sphingobium sp. TCM1. The text has this: UV/vis Michaelis-Menten kinetics on Sb-PDE

Test [3] relates to T2, Sb-PDE. It is filed as biochemical, Sphingobium sp. TCM1. From the text: steady-state kinetics on Sb-PDE
Test [4] relates to T1, No-PDE. Description: steady-state kinetics. It is filed as biochemical, Novosphingobium sp. EMRT-2. From the text: steady-state kinetics on No-PDE

Like-named read-outs stand apart in the source and are kept apart here.

The Km is the concentration of substrate that gives half-maximal velocity. Consider `O=[N+]([O-])c1ccc(OP(=O)(O)Oc2ccc([N+](=O)[O-])cc2)cc1` [compound 1, bis-p-nitrophenyl phosphate], for which the Km with No-PDE [1] came out at 620 µM; in the test on Sb-PDE [2], 140 µM. In the same order, the values of `O=P(O)(Oc1ccccc1)Oc1ccccc1` [compound 2, diphenyl phosphate] are 2300 µM and 900 µM. With `O=[N+]([O-])c1ccc(OP(=O)(O)O)cc1` [compound 11, p-nitrophenyl phosphate], the Michaelis-Menten constant (Km) in the test with Sb-PDE [3] was determined as 140 µM; in the test on No-PDE [4] it was 1400 µM.

As to `O=P(O)(O)Oc1ccccc1` [compound 12, phenyl phosphate], in the test with Sb-PDE [3], the Km was found to be 1400 µM.
